Experimental data as given in patent publication US6866845B1, “Compositions and methods for the treatment of sepsis” (The Regents of the University of Michigan, priority 1999, dated 2005).
Where no end group is shown, it is not given here.

B1: MLQKKIEEIAAKYKHSVVKKCCYDGASVNNDETCEQRAARISLGPRCIKAFTECCVVASQLRANISHKDMQLGR (protein, listed as Homo sapiens)
chain: MLQKKIEEIAAKYKHSVVKKCCYDGASVNNDETCEQRAARISLGPRCIKAFTECCVVASQLRANISHKDMQLGR
notes: full length human complement component C5a peptide

What was measured:
human neutrophils [1] = assay: chemotaxis of human neutrophils in chemotactic chambers; assay type: cell-based; conditions: for chemotactic activity of KLH conjugate compared to C5a peptide: calculated synthetic peptide concentration 100 nM, peptide:KLH approximately 3:1; for chemotactic response to peptide in medium alone: 1 μM peptide; for reduction in the chemotactic responses of neutrophils to human C5a: 1 μM peptide with 10 μM human C5a
Description: This Example describes the ability of certain synthetic peptides representative of regions of human C5a peptide to reduce the chemotactic response of human neutrophils to human C5a peptide. Human neutrophils were isolated from human blood by traditional Ficoll-Hypaque sedimentation techniques. Using standardized methodology, neutrophils (5×10^6/ml) labeled with 1 μg/ml BCECF [2′,7′-(2 carboxyethyl)-5-(and-6)-carboxyfluroscein, acetoxymethy ester) at 37° C. for 30 min, were applied to the upper compartments of […] The two compartments were separated by a membrane with pore sizes of 3 μm. Neutrophil chemotactic responses were quantitated by cytofluorometry.
[…] Peptide A (SEQ ID NO:4) represents residues 1-20 of human C5a peptide, peptide M (SEQ ID NO: 5) represents residues 21-40 of human C5a peptide, and peptide C (SEQ ID NO:6) represents residues 55-74 of human C5a peptide.
This Example describes neutrophil chemotactic activity of peptides A, M, and C linked to keyholelimpet hemocyanin (KLH) employing the chemotactic assay described in Example 7. The peptide:KLH molar ratios employed were approximately 3:1. […]

human neutrophils [2] = assay: competition with 125I-hC5a peptide binding to human neutrophils; conditions: ratio of peptide to labelled hC5a 10:1
Text: This Examples describes certain peptides which are able to antagonize the ability of human C5a peptide to bind to human neutrophils. Three different peptides, labelled A, M, and C, were used to antagonize the binding of ^125I-hC5a peptide to human neutrophils. Again, peptide A (SEQ ID NO:4) represents residues 1-20 of human C5a peptide, peptide M (SEQ ID NO: 5) represents residues 21-40 of human C5a peptide, and peptide C (SEQ ID NO:6) represents residues 55-74 of human C5a peptide.
Human peripheral blood neutrophils (1×10^7 cells/ml) were incubated in Hank's buffered saline plus 0.1% bovine serum albumin with both ^123]-labelled hC5a peptide (300 μCi/nmol) and either peptide A, M, or C, in a final volume of 200 μl in a microfuge tube. The ratio of the shorter peptides (A, M, or C) to ^1251]-labelled hC5a peptide was 10:1. After incubation, cell suspension were layered over a 20% sucrose gradient and were sedimented by centrifugation at 11,000 g. The tubes were then frozen on dry ice, followed by cutting the tips containing the pellet. Cell-bound label was then determined by placing the tips in a gamma counter.

human neutrophils [3] = assay: H2O2 production of human neutrophils stimulated by PMA; assay type: cell-based; conditions: for inhibition of PMA-elicited H2O2 response: neutrophils pretreated with peptide, then PMA
Text: This Example describes the effect of human C5a peptide, and certain shorter synthetic human C5a peptides A, M, or C, to inhibit the H2O2 production of human neutrophils stimulated by phorbol myristate acetate (PMA). Again, peptide A (SEQ ID NO:4) represents residues 1-20 of human C5a peptide, peptide M (SEQ ID NO: 5) represents residues 21-40 of human C5a peptide, and peptide C (SEQ ID NO:6) represents residues 55-74 of human C5a peptide. Human neutrophils were isolated and then pretreated with C5a peptide or one of the shorter synthetic peptides (A, M, or C). Cells were then stimulated with PMA and the production of H2O2 was measured.

[4] = biological target: human peripheral blood neutrophils (surface sites that bind human C5a peptide) (human) (UniProt P21730); assay: cell-based or functional assay
[5] = biological target: rat C5a peptide (full length) (rat) (UniProt P08650); assay: flow cytometry on rat blood neutrophils, control stain
Sequence of UniProt P08650 (P08650 679-755 limits assumed): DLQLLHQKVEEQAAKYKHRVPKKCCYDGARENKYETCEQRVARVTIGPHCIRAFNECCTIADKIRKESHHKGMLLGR

Sequence of UniProt P21730 (P21730 whole entry): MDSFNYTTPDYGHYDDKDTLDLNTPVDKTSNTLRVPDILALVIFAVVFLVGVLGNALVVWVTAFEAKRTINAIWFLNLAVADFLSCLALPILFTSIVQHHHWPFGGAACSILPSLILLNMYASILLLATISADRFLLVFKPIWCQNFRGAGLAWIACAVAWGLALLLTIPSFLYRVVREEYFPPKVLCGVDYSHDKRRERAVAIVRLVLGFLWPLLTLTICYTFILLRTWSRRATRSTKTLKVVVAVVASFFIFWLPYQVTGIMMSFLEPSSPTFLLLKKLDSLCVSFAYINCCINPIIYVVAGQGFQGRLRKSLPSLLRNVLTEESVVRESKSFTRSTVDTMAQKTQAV

Row | Molecule | chemotactic activity of KLH conjugate compared to C5a peptide (human neutrophils [1]) | chemotactic response to peptide in medium alone (human neutrophils [1]) | reduction in the chemotactic responses of neutrophils to human C5a (human neutrophils [1]) | reducing the binding of hC5a peptide to human neutrophils (human neutrophils [2]) | inhibition of PMA-elicited H2O2 response (human neutrophils [3]) | further results
1 | A peptide KLH conjugate: peptide A (SEQ ID NO:4) linked to keyhole limpet hemocyanin, peptide:KLH approximately 3:1 (MLQKKIEEIAAKYKHSVVKK; also: linked to keyhole limpet hemocyanin, peptide:KLH ~3:1) | most chemotactically active | – | – | – | – | –
2 | C peptide conjugate: peptide C (SEQ ID NO:6) linked to keyhole limpet hemocyanin, peptide:KLH approximately 3:1 (CVVASQLRANISHKDMQLGR; also: linked to keyhole limpet hemocyanin, peptide:KLH ~3:1) | almost as active | – | – | – | – | –
3 | CCYDGASVNNDETCEQRAAR (listed as Homo sapiens) [peptide M, residues 21-40 of human C5a peptide] | – | did not per se induce any chemotactic responses | approximately 20% | significantly (p<0.05) competitive | strongest suppression | –
4 | CVVASQLRANISHKDMQLGR (listed as Homo sapiens) [peptide C, residues 55-74 of human C5a peptide] | – | did not per se induce any chemotactic responses | approximately 20% | no statistically significant interference | to varying degrees | –
5 | M peptide conjugate: peptide M (SEQ ID NO:5) linked to keyhole limpet hemocyanin, peptide:KLH approximately 3:1 (CCYDGASVNNDETCEQRAAR; cysteine pairing not given here; also: linked to keyhole limpet hemocyanin, peptide:KLH ~3:1) | no chemotactic activity | – | – | – | – | –
6 | MLQKKIEEIAAKYKHSVVKK (listed as Homo sapiens) [peptide A, residues 1-20 of human C5a peptide] | – | did not per se induce any chemotactic responses | approximately 20% | significantly (p<0.05) competitive | to varying degrees | –
7 | peptide C (residues 55-74 of human C5a peptide) | – | – | – | – | – | chemotactic responses of neutrophils to human C5a [4]: 20%
8 | preimmune IgG (antibody) | – | – | – | – | – | Mean Channel Fluorescence (binding value) (MCF (mean ± SEM)) [5]: 4.45
9 | B1 | – | – | – | – | inhibitable | effect on H2O2 production, peptide alone (human neutrophils [3]; without PMA): no effect
